Results from patent US20040248171A1, “Cancer monitoring by aberrant promotor methylation of the transcription factor genes PAX5 alpha PAX5 beta, novel loop helix loop protein, novel gene 2, and beta 3 genes” (Lovelace Respiratory Research Institute, priority 2001, published 2004).

Key:
Format in all cases: cell-based, human
PAX5 α gene expression = assay: RT-PCR analysis for expression of the PAX5 α gene after DAC treatment; conditions: for PAX5 α transcript expression: 1 μM DAC, 72 h
Protocol: (§1) Reverse transcription-PCR (RT-PCR) was conducted on cDNA from three breast cancer cell lines (MCF7, MDA-MB 231, and T47D) and one lung cancer cell line (Calu6) to determine the relationship between methylation of the PAX5 α and β genes and transcription. […] Reference is made to FIG. 3A, showing an MSP analysis of breast and lung cancer cell lines. Bisulfite-modified DNA was amplified with stage-2 primers specific for methylated alleles. […] Expression of the PAX5 α and β genes was restored in non-expressing cell lines following DAC treatment. Expression of the β-actin gene was determined as a control for RNA integrity.
(§2) 5-Aza-2′-deoxycytidine Treatment and RT-PCR. Re-expression studies were performed using three breast cancer cell lines (MCF7, MDA-MB-23 1, and T47D) and one lung cancer cell line (Calu6). Cell lines were treated for 3 days in culture media with 1 μM DAC (Sigma Chemical Co.). Total RNA was prepared using Trizol (Life Technologies, Inc.), and 3 μg aliquots were reverse-transcribed using the Superscript kit (Life Technologies, Inc.). The expression of the PAX5 α and β transcripts were determined by reverse transcription (RT)-PCR using the exon 1α forward primer (5′-[…]-3′) and the exon 1β forward primer (5′-[…]-3′) with an exon 2 reverse primer (5′-[…]-3′). β-actin was also amplified as a control for RNA integrity.
(§3) PCR amplification was performed at 94° C. for 10 min; then 35 cycles of 94° C. for 30 s, 64° C. for 30 s, and 72° C. for 30 s; and a 5-min final extension at 72° C. PCR products were analyzed on a 3% agarose gel containing ethidium bromide and visualized under UV illumination.

PAX5 β gene expression = assay: RT-PCR analysis for expression of the PAX5 β gene after DAC treatment
Protocol: as §1
as §2, with “Cell lines were treated for 3 days in culture media with 1 μM DAC (Sigma Chemical Co.). Total RNA was prepared using Trizol (Life Technologies, Inc.), and 3 μg aliquots were reverse-transcribed using the Superscript kit (Life Technologies, Inc.).” left out
as §3

β-actin gene expression = assay: RT-PCR analysis for expression of the housekeeping gene β-actin after DAC treatment; conditions: MCF7, MDA-MB 231, T47D, Calu6 cell lines, 1 μM DAC, 72 h
Protocol: as §1
as §2, with “Cell lines were treated for 3 days in culture media with 1 μM DAC (Sigma Chemical Co.). Total RNA was prepared using Trizol (Life Technologies, Inc.), and 3 μg aliquots were reverse-transcribed using the Superscript kit (Life Technologies, Inc.).” left out
as §3

[1] = non-expressing breast and lung cancer cell lines, 1 μM DAC for 72 h (FIG. 3B)

Nc1ncn([C@H]2C[C@H](O)[C@@H](CO)O2)c(=O)n1 [DAC, 5-Aza-2′-deoxycytidine]
PAX5 α transcript expression (PAX5 α gene expression; Calu6 lung cancer cell line): increased expression
PAX5 α transcript expression (PAX5 α gene expression; MDA-MB231 breast cancer cell line): restored expression
PAX5 α transcript expression (PAX5 α gene expression; T47D breast cancer cell line): restored expression
Expression of the PAX5 α gene (PAX5 α gene expression; [1]): restored
Expression of the PAX5 β gene (PAX5 β gene expression; [1]): restored
PAX5 β transcript expression (PAX5 β gene expression; the other three cell lines (MCF7, MDA-MB 231, Calu6), 1 μM DAC, 72 h): restored expression
expression of the housekeeping gene β-actin (β-actin gene expression): did not affect
